ChEMBL document CHEMBL1250471, “Synthesis and antimycobacterial activity of new quinoxaline-2-carboxamide 1,4-di-N-oxide derivatives” (2010)
≈ marks a conversion by molar mass, not a printed value.

Columns and labels:
[1] = tested on: Mycobacterium tuberculosis; experiment: Antimycobacterial activity against Mycobacterium tuberculosis H37Rv ATCC 27294 microplate alamar blue assay; format: functional
[2] = Selectivity index, ratio of CC50 for african green monkey Vero cells to MIC for Mycobacterium tuberculosis H37Rv ATCC 27294; format: functional

Compound | IC90 [1] | Selectivity Index [2]
Cc1c(C(=O)NCC(c2ccccc2)c2ccccc2)[n+]([O-])c2cc(Cl)c(Cl)cc2[n+]1[O-] | 66.5 µg/mL (≈ 142 µM) | –
Cc1c(C(=O)NCc2ccc(C(F)(F)F)cc2)[n+]([O-])c2cc(Cl)ccc2[n+]1[O-] | 6.13 µg/mL (≈ 14.9 µM) | >6.52
Cc1ccc(CNC(=O)c2c(C)[n+]([O-])c3cc(Cl)c(Cl)cc3[n+]2[O-])cc1 | > 100 µg/mL | –
Cc1c(C(=O)NCC(c2ccccc2)c2ccccc2)[n+]([O-])c2ccccc2[n+]1[O-] | 16 µg/mL (≈ 40 µM) | –
Cc1c(C(=O)NCc2ccc(Cl)cc2)[n+]([O-])c2cc(Cl)c(Cl)cc2[n+]1[O-] | 51.9 µg/mL (≈ 126 µM) | –
Cc1c(C(=O)NCc2ccc(Br)cc2)[n+]([O-])c2cc(Cl)ccc2[n+]1[O-] | 5.33 µg/mL (≈ 12.6 µM) | >7.5
O=C(Nc1ccccc1)c1c(-c2ccccc2)[n+]([O-])c2ccc(C(F)(F)F)cc2[n+]1[O-] | 19.1 µg/mL (≈ 44.9 µM) | –
CO[C@H]1/C=C/O[C@@]2(C)Oc3c(C)c(O)c4c(O)c(c(/C=N/N5CCN(C)CC5)c(O)c4c3C2=O)NC(=O)/C(C)=C\C=C\[C@H](C)[C@H](O)[C@@H](C)[C@@H](O)[C@@H](C)[C@H](OC(C)=O)[C@@H]1C [RIFAMPIN] | 0.015 µg/mL (≈ 0.0182 µM) | >800
Cc1ccc(CNC(=O)c2c(C)[n+]([O-])c3ccc(Cl)cc3[n+]2[O-])cc1 | 32 µg/mL (≈ 89.5 µM) | –
Cc1c(C(=O)NCc2ccc(Cl)cc2)[n+]([O-])c2ccccc2[n+]1[O-] | 11 µg/mL (≈ 32.1 µM) | –
Cc1ccc2c(c1)[n+]([O-])c(C(=O)NCc1ccc3c(c1)OCO3)c(C)[n+]2[O-] | 13.2 µg/mL (≈ 36 µM) | –
Cc1ccc2c(c1)[n+]([O-])c(C(=O)NCc1ccc(C(F)(F)F)cc1)c(C)[n+]2[O-] | > 100 µg/mL | –
Cc1ccc2c(c1)[n+]([O-])c(C(=O)Nc1ccccc1)c(-c1ccccc1)[n+]2[O-] | 24.6 µg/mL (≈ 66.4 µM) | –
Cc1c(C(=O)NCc2ccc3c(c2)OCO3)[n+]([O-])c2ccccc2[n+]1[O-] | 22.8 µg/mL (≈ 64.4 µM) | –
Cc1c(C(=O)NCc2ccc3c(c2)OCO3)[n+]([O-])c2cc(Cl)ccc2[n+]1[O-] | 6.99 µg/mL (≈ 18 µM) | >5.72
Cc1c(C(=O)NCc2ccc3c(c2)OCO3)[n+]([O-])c2cc(Cl)c(Cl)cc2[n+]1[O-] | 34.9 µg/mL (≈ 82.7 µM) | –
Cc1c(C(=O)NCc2ccc(Br)cc2)[n+]([O-])c2ccccc2[n+]1[O-] | 15.6 µg/mL (≈ 40.2 µM) | –
O=C(Nc1ccccc1)c1c(-c2ccccc2)[n+]([O-])c2ccc(Cl)cc2[n+]1[O-] | 6.71 µg/mL (≈ 17.1 µM) | 1.34
O=C(NCCc1ccccc1)c1c(-c2ccccc2)[n+]([O-])c2ccccc2[n+]1[O-] | 18.6 µg/mL (≈ 48.3 µM) | –
O=C(Nc1ccccc1)c1c(-c2ccccc2)[n+]([O-])c2ccc(F)cc2[n+]1[O-] | 17.9 µg/mL (≈ 47.8 µM) | –
O=C(NCc1ccccc1)c1c(-c2ccccc2)[n+]([O-])c2ccc(C(F)(F)F)cc2[n+]1[O-] | > 100 µg/mL | –
O=C(NCc1ccccc1)c1c(-c2ccccc2)[n+]([O-])c2ccccc2[n+]1[O-] | 6.71 µg/mL (≈ 18.1 µM) | >5.96

Compound | IC90 [1] | Selectivity Index [2]
Cc1ccc2c(c1)[n+]([O-])c(C(=O)NCc1ccccc1)c(-c1ccccc1)[n+]2[O-] | 13.9 µg/mL (≈ 36.1 µM) | –
O=C(NCc1ccccc1)c1c(-c2ccccc2)[n+]([O-])c2ccc(Cl)cc2[n+]1[O-] | 3.39 µg/mL (≈ 8.35 µM) | >11.79
Cc1ccc2c(c1)[n+]([O-])c(C(=O)NCc1ccc(Cl)cc1)c(C)[n+]2[O-] | 14.6 µg/mL (≈ 40.7 µM) | –
COc1ccc2c(c1)[n+]([O-])c(C(=O)NCc1ccccc1)c(-c1ccccc1)[n+]2[O-] | 14.6 µg/mL (≈ 36.3 µM) | –
COc1ccc2c(c1)[n+]([O-])c(C(=O)NCc1ccc(C(F)(F)F)cc1)c(C)[n+]2[O-] | > 100 µg/mL | –
Cc1c(C(=O)NCC(c2ccccc2)c2ccccc2)[n+]([O-])c2cc(Cl)ccc2[n+]1[O-] | 60.4 µg/mL (≈ 139 µM) | –
Cc1ccc2c(c1)[n+]([O-])c(C(=O)NCC(c1ccccc1)c1ccccc1)c(C)[n+]2[O-] | 16.8 µg/mL (≈ 40.6 µM) | –
O=C(NCc1ccccc1)c1c(-c2ccccc2)[n+]([O-])c2cc(Cl)c(Cl)cc2[n+]1[O-] | 25.4 µg/mL (≈ 57.8 µM) | –
O=C(NCCc1ccccc1)c1c(-c2ccccc2)[n+]([O-])c2ccc(Cl)cc2[n+]1[O-] | 15.4 µg/mL (≈ 36.7 µM) | –
Cc1c(C(=O)NCc2ccc(C(F)(F)F)cc2)[n+]([O-])c2cc(C(F)(F)F)ccc2[n+]1[O-] | 3.38 µg/mL (≈ 7.59 µM) | >11.82
Cc1ccc(CNC(=O)c2c(C)[n+]([O-])c3ccccc3[n+]2[O-])cc1 | 6.76 µg/mL (≈ 20.9 µM) | >5.92
Cc1c(C(=O)NCc2ccc(Br)cc2)[n+]([O-])c2cc(Cl)c(Cl)cc2[n+]1[O-] | 6.92 µg/mL (≈ 15.1 µM) | >5.78
Cc1ccc2c(c1)[n+]([O-])c(C(=O)NCc1ccc(Br)cc1)c(C)[n+]2[O-] | 78.2 µg/mL (≈ 194 µM) | –
Cc1c(C(=O)NCc2ccc(Cl)cc2)[n+]([O-])c2cc(Cl)ccc2[n+]1[O-] | 29.7 µg/mL (≈ 78.5 µM) | –
O=C(Nc1ccccc1)c1c(-c2ccccc2)[n+]([O-])c2ccccc2[n+]1[O-] | 27 µg/mL (≈ 75.5 µM) | –
Cc1c(C(=O)NCc2ccc(C(F)(F)F)cc2)[n+]([O-])c2cc(Cl)c(Cl)cc2[n+]1[O-] | 6.58 µg/mL (≈ 14.7 µM) | >6.08
Cc1c(C(=O)NCc2ccc(C(F)(F)F)cc2)[n+]([O-])c2ccccc2[n+]1[O-] | 16.8 µg/mL (≈ 44.6 µM) | –
Cc1ccc(CNC(=O)c2c(C)[n+]([O-])c3ccc(C)cc3[n+]2[O-])cc1 | 99.9 µg/mL (≈ 296 µM) | –
O=C(NCc1ccccc1)c1c(-c2ccccc2)[n+]([O-])c2ccc(F)cc2[n+]1[O-] | 3.86 µg/mL (≈ 9.91 µM) | 4.62
COc1ccc2c(c1)[n+]([O-])c(C(=O)Nc1ccccc1)c(-c1ccccc1)[n+]2[O-] | 26.8 µg/mL (≈ 69.3 µM) | –
O=C(Nc1ccccc1)c1c(-c2ccccc2)[n+]([O-])c2cc(Cl)c(Cl)cc2[n+]1[O-] | 6.63 µg/mL (≈ 15.6 µM) | 0.84
Cc1c(C(=O)NCc2ccc(C(F)(F)F)cc2)[n+]([O-])c2cc(F)ccc2[n+]1[O-] | 4.48 µg/mL (≈ 11.3 µM) | >8.94
